# Values of other authors as cited in patent US20050032777A1, “Diazacycloalkanes as oxytocin agonists” (priority 2001, published 2005).
# Like-named read-outs stand apart in the source and are kept apart here.
# Test system: erectile response
# Settings: male rats
structure (smiles),measurement,setting,value
"CC[C@H](C)[C@@H]1NC(=O)[C@H](Cc2ccc(O)cc2)NC(=O)[C@@H](N)CSSC[C@@H](C(=O)N2CCC[C@H]2C(=O)N[C@@H](CC(C)C)C(=O)NCC(N)=O)NC(=O)[C@H](CC(N)=O)NC(=O)[C@H](CCC(N)=O)NC1=O [OT, oxytocin]",erectogenic activity,i.c.v.,erectogenic
same,erectogenic activity,"iv., doses up to two orders of magnitude greater than i.c.v.",erectogenic activity
